Assay results taken from the NIST ThermoML archive (doi:10.1016/j.tca.2018.10.018).

Assay: xn = mol fraction of the nth substance listed
Conditions: Liquid; for viscosity: Capillary tube (Ostwald / Ubbelohde) method; for mass density: Siemens Coriolis flowmeter

CCCCCCCCCC(=O)OC [methyl decanoate] + CCCCCCC
Conditions | mass density, 298.15 K [kg/m3] | mass density, 308.15 K [kg/m3] | mass density, 318.15 K [kg/m3] | viscosity, 298.15 K [mPa·s] | viscosity, 308.15 K [mPa·s] | viscosity, 318.15 K [mPa·s]
100 kPa, x1 = 0.101 | 706 | 698 | 689 | 0.465 | 0.394 | 0.339
100 kPa, x1 = 0.202 | 730 | 722 | 713 | 0.549 | 0.454 | 0.375
100 kPa, x1 = 0.299 | 753 | 744 | 736 | 0.655 | 0.52 | 0.418
100 kPa, x1 = 0.403 | 773 | 765 | 757 | 0.779 | 0.613 | 0.486
100 kPa, x1 = 0.501 | 792 | 784 | 776 | 0.912 | 0.716 | 0.565
100 kPa, x1 = 0.601 | 810 | 801 | 793 | 1.071 | 0.843 | 0.669
100 kPa, x1 = 0.698 | 826 | 818 | 809 | 1.257 | 0.999 | 0.8
100 kPa, x1 = 0.799 | 841 | 833 | 825 | 1.461 | 1.173 | 0.951
100 kPa, x1 = 0.902 | 855 | 847 | 839 | 1.67 | 1.351 | 1.104
100 kPa, x1 = 1 | 868 | 860 | 853 | 1.934 | 1.628 | 1.38
3000 kPa, x1 = 0.101 | 709 | 700 | 692 | 0.483 | 0.411 | 0.355
3000 kPa, x1 = 0.202 | 734 | 724 | 717 | 0.575 | 0.475 | 0.394
3000 kPa, x1 = 0.299 | 756 | 747 | 739 | 0.686 | 0.547 | 0.441
3000 kPa, x1 = 0.403 | 776 | 767 | 760 | 0.815 | 0.644 | 0.514
3000 kPa, x1 = 0.501 | 795 | 786 | 778 | 0.955 | 0.752 | 0.597
3000 kPa, x1 = 0.601 | 812 | 804 | 796 | 1.119 | 0.885 | 0.704
3000 kPa, x1 = 0.698 | 828 | 820 | 812 | 1.31 | 1.045 | 0.84
3000 kPa, x1 = 0.799 | 843 | 835 | 827 | 1.52 | 1.224 | 0.995
3000 kPa, x1 = 0.902 | 857 | 849 | 841 | 1.735 | 1.407 | 1.152
3000 kPa, x1 = 1 | 870 | – | 854 | 1.992 | – | 1.417
3010 kPa, x1 = 1 | – | 862 | – | – | 1.675 | –
6000 kPa, x1 = 0.101 | 712 | 703 | 696 | 0.502 | 0.428 | 0.371
6000 kPa, x1 = 0.202 | 736 | 727 | 720 | 0.599 | 0.496 | 0.414
6000 kPa, x1 = 0.299 | 758 | 750 | 742 | 0.717 | 0.574 | 0.465
6000 kPa, x1 = 0.403 | 779 | 770 | 763 | 0.851 | 0.676 | 0.541
6000 kPa, x1 = 0.501 | 798 | 789 | 781 | 0.996 | 0.789 | 0.629
6000 kPa, x1 = 0.601 | 815 | 806 | 799 | 1.166 | 0.926 | 0.74
6000 kPa, x1 = 0.698 | 831 | 822 | 815 | 1.364 | 1.091 | 0.88
6000 kPa, x1 = 0.799 | 846 | 837 | 830 | 1.58 | 1.276 | 1.039
6000 kPa, x1 = 0.902 | 859 | 851 | 843 | 1.8 | 1.463 | 1.199
6000 kPa, x1 = 1 | 872 | 864 | 856 | 2.058 | 1.727 | 1.462
9000 kPa, x1 = 0.101 | 715 | 706 | 699 | 0.519 | 0.446 | 0.386
9000 kPa, x1 = 0.202 | 739 | 730 | 723 | 0.623 | 0.518 | 0.433
9000 kPa, x1 = 0.299 | 761 | 752 | 745 | 0.746 | 0.6 | 0.489
9000 kPa, x1 = 0.403 | 781 | 773 | 765 | 0.886 | 0.707 | 0.569
9000 kPa, x1 = 0.501 | 800 | 792 | 784 | 1.038 | 0.825 | 0.661
9000 kPa, x1 = 0.601 | 817 | 809 | 801 | 1.214 | 0.967 | 0.776
9000 kPa, x1 = 0.698 | 833 | 825 | 817 | 1.417 | 1.138 | 0.919
9000 kPa, x1 = 0.799 | 848 | 840 | 832 | 1.639 | 1.327 | 1.083
9000 kPa, x1 = 0.902 | 861 | 853 | 846 | 1.865 | 1.519 | 1.247
9000 kPa, x1 = 1 | 874 | 866 | 859 | 2.123 | 1.779 | 1.491
12000 kPa, x1 = 0.101 | 718 | 709 | 702 | 0.537 | 0.463 | 0.402
12000 kPa, x1 = 0.202 | 742 | 733 | 726 | 0.647 | 0.539 | 0.452
12000 kPa, x1 = 0.299 | 764 | 755 | 748 | 0.776 | 0.626 | 0.512
12000 kPa, x1 = 0.403 | 784 | 775 | 768 | 0.922 | 0.739 | 0.596
12000 kPa, x1 = 0.501 | 802 | 794 | 787 | 1.079 | 0.862 | 0.692
12000 kPa, x1 = 0.601 | 819 | 811 | 804 | 1.261 | 1.009 | 0.812
12000 kPa, x1 = 0.698 | 835 | 827 | 820 | 1.471 | 1.184 | 0.959
12000 kPa, x1 = 0.799 | 850 | 842 | 834 | 1.698 | 1.378 | 1.126
12000 kPa, x1 = 0.902 | 863 | 856 | 848 | 1.93 | 1.575 | 1.295
12000 kPa, x1 = 1 | 877 | 869 | 861 | 2.209 | 1.835 | 1.534
15000 kPa, x1 = 0.101 | 720 | 712 | 705 | 0.555 | 0.48 | 0.418
15000 kPa, x1 = 0.202 | 744 | 736 | 729 | 0.671 | 0.561 | 0.472
15000 kPa, x1 = 0.299 | 766 | 758 | 751 | 0.806 | 0.653 | 0.536
15000 kPa, x1 = 0.403 | 786 | 778 | 771 | 0.958 | 0.771 | 0.624
15000 kPa, x1 = 0.501 | 805 | 797 | 789 | 1.121 | 0.898 | 0.724
15000 kPa, x1 = 0.601 | 822 | 814 | 806 | 1.308 | 1.051 | 0.847
15000 kPa, x1 = 0.698 | 837 | 829 | 822 | 1.524 | 1.23 | 0.998
15000 kPa, x1 = 0.799 | 852 | 844 | 837 | 1.757 | 1.429 | 1.17
15000 kPa, x1 = 0.902 | 865 | 858 | 850 | 1.995 | 1.631 | 1.343
15000 kPa, x1 = 1 | 878 | 871 | 863 | 2.272 | 1.888 | 1.578
